The values that follow come from ChEMBL document CHEMBL3774349, “Thiazolo[4,5-d]pyrimidines as a privileged scaffold in drug discovery” (Eur J Med Chem, 2016).

Data set [1] is described as follows: Cytotoxicity against human KB cells assessed as cell growth inhibition by crystal violet staining based spectrophotometry. The note with it: read-out: TC50 (the source's name).
A short description of data set [2]: Cytotoxicity against monkey Vero cells assessed as cell growth inhibition by aqueous non-Radioactivity Cell proliferation Assay. The settings on record: chlorocebus sabaeus, read-out: TC50 (the source's name). It is filed as cell-based.
Data set [3] is described as follows: Cytotoxicity against human MRC5 cells assessed as cell growth inhibition by aqueous non-Radioactivity Cell proliferation Assay. The class given is cell-based. The note with it: read-out: TC50 (the source's name).
Another data set concerns Human betaherpesvirus 5. Description: Antiviral activity against Human cytomegalovirus Towne infected in HFF cells after 2 hrs by plaque reduction assay. The note with it: Human betaherpesvirus 5, Towne. It is filed as functional, cell-based.
The test system of the next data set is Semliki Forest virus. The data set is described as follows: Antiviral activity against Semliki forest virus infected in mouse. The class given is functional.
Data set [4] concerns the target T1, Corticotropin-releasing factor receptor 1 (Homo sapiens) (UniProt P34998).
T1 sequence (whole entry): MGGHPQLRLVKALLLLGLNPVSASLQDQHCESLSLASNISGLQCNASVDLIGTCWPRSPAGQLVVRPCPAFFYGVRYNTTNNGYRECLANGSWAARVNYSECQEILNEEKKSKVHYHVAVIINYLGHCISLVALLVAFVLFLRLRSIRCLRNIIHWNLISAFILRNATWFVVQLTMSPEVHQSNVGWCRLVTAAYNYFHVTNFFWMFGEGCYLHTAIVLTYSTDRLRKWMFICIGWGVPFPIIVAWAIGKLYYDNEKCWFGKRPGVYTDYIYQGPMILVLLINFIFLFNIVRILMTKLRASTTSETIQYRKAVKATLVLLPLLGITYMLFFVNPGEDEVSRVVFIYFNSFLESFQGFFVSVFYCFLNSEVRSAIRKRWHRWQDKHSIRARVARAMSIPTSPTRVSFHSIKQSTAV
The data set is described as follows: Displacement of [125I]-Tyr0 sauvagine from human CRF1 receptor expressed in HEK293 cells membrane homogenates at 1000 nM for 120 mins by scintillation counting in the presence of antalarmin. The class given is cell membranes. Background: Displacement assays read how much labelled ligand stays bound in the presence of the test substance.

What is called IC50 is the concentration at which inhibition is half-maximal. As for `CC/C=C/Cn1c(=O)sc2c(=O)[nH]c(N)nc21`, the CC50 in data set [1], in data set [2] and in data set [3] was 75 µM throughout. The IC50 in the data set on Human betaherpesvirus 5 was 0.5 µM.

In the case of `Nc1nc(=O)c2sc(=O)n([C@@H]3O[C@H](CO)[C@@H](O)[C@H]3O)c2[nH]1` [ISATORIBINE], the Activity with Semliki Forest virus was 92%.

By inhibition is commonly meant how much of the control response was suppressed. In the case of `CCOC(=O)/C(C#N)=C1/Sc2c(N(CCOC)CCOC)nc(C)nc2N1c1ccc(C(C)C)cc1Br`, the inhibition in data set [4] stood at 25%.

Consider `CCCN(CC1CC1)c1nc(C)nc2c1SC(=C(C#N)C#N)N2c1ccc(C(C)C)cc1Br`, for which the inhibition in data set [4] is 25%.

On to `CC(C)=CCn1c(=O)sc2c(=O)[nH]c(N)nc21`, for which the CC50 in data set [1], in data set [2] and in data set [3] was 75 µM in each case. 6.8 µM corresponded to half-maximal inhibition in the data set with Human betaherpesvirus 5 (IC50).
